Measured values: patent US20180208605A1, “Substituted Aza Compounds as IRAK-4 Inhibitors” (AURIGENE DISCOVERY TECHNOLOGIES LIMITED, priority 2015, published 2018)
Where a name gives a salt, the structure may show the parent alone.

Target: T1, recombinant IRAK-4 kinase (Homo sapiens, UniProt Q9NWZ3)
T1 construct: purchased Millipore, USA
T1 sequence (Q9NWZ3 1-460): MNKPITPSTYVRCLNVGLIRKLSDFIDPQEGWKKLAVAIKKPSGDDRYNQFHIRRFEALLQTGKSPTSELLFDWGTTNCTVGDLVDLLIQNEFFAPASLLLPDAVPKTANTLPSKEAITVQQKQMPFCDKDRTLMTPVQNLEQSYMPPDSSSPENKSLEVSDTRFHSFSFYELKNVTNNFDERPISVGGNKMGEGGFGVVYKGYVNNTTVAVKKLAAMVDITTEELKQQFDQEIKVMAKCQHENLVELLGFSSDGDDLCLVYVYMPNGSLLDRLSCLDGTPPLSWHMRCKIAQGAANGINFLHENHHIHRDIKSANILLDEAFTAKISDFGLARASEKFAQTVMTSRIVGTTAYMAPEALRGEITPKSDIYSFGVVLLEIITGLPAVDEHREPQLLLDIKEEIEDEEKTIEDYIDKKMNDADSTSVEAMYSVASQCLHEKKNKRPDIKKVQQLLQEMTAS
Assay: IRAK-4 Biochemical Assay (TR-FRET, percent inhibition)
Settings: TR-FRET, 20 μM ATP, 100 nM Biotin Histone H3; for inhibition at 0.1 µM: read-out: % inhibition of IRAK-4 @0.1 μM, compound at 0.1 μM; for inhibition at 1 µM: read-out: % inhibition of IRAK-4 @ 1 μM, compound at 1 μM
Procedure, shortened: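 IRAK-4 pre-incubated with compound 30 min at room temperature in Tris-HCl pH 7.5 buffer with MgCl2, MnCl2 and DTT, then reacted 30 min with 100 nM biotin-histone H3 and 20 μM ATP. EDTA stop with Eu-anti-phospho-H3 (Ser10) and APC-streptavidin. Percent inhibition derived from the 665/615 nm emission ratio at 340 nm excitation.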

inhibition at 0.1 µM [%] | inhibition at 1 µM [%] | SMILES
95 | 96 | O=C(Nc1cc2sc(N3CCOCC3)nc2nc1N1CCCCC1)c1cccc(N2CCC(O)CC2)n1 [Example 56, 6-(4-hydroxypiperidin-1-yl)-N-(2-morpholino-5-(piperidin-1-yl)thiazolo[4,5-b]pyridin-6-yl)picolinamide]
84 | 91 | O=C1CN(c2cccc(C(=O)Nc3cc4sc(N5CCOCC5)nc4nc3N3CCCCC3)n2)CCN1 [Example 61, N-(2-morpholino-5-(piperidin-1-yl)thiazolo[4,5-b]pyridin-6-yl)-6-(3-oxopiperazin-1-yl)picolinamide]
94 | 98 | O=C(Nc1cc2sc(N3CCOCC3)nc2nc1N1CCCCC1)c1cccc(N2CCCC(O)C2)n1 (stereo not shown) [Example 55, 6-(3-hydroxypiperidin-1-yl)-N-(2-morpholino-5-(piperidin-1-yl)thiazolo[4,5-b]pyridin-6-yl)picolinamide]
94 | 98 | O=C(Nc1cc2sc(N3CCOCC3)nc2nc1N1CCCCC1)c1cccc(N2CC[C@H](O)C2)n1 [Example 42, (S)-6-(3-hydroxypyrrolidin-1-yl)-N-(2-morpholino-5-(piperidin-1-yl)thiazolo[4,5-b]pyridin-6-yl)picolinamide hydrochloride]
23 | 38 | O=C(Nc1cc2sc(N3CCOCC3)nc2nc1N1CCCCC1)c1cc(N2CC[C@H](O)C2)ccn1 [Example 68, (S)-4-(3-hydroxypyrrolidin-1-yl)-N-(2-morpholino-5-(piperidin-1-yl)thiazolo[4,5-b]pyridin-6-yl)picolinamide]
98 | 99 | NCc1cn(-c2cccc(C(=O)Nc3cc4sc(N5CCOCC5)nc4nc3N3CCCCC3)n2)cn1 [Example 70, 6-(4-(aminomethyl)-1H-imidazol-1-yl)-N-(2-morpholino-5-(piperidin-1-yl)thiazolo[4,5-b]pyridin-6-yl)picolinamide 2,2,2-trifluoroacetate]
98 | 99 | O=C(Nc1cc2sc(N3CCOCC3)nc2nc1N1CCCCC1)c1cccc(-n2cc(CO)cn2)n1 [Example 69, 6-(4-(hydroxymethyl)-1H-pyrazol-1-yl)-N-(2-morpholino-5-(piperidin-1-yl)thiazolo[4,5-b]pyridin-6-yl)picolinamide]
99 | 96 | O=C(Nc1cc2sc(N3CCOCC3)nc2nc1N1CCCCC1)c1cccc(N2CCCC(CO)C2)n1 (stereo not shown) [Example 78, 6-(3-(hydroxymethyl)piperidin-1-yl)-N-(2-morpholino-5-(piperidin-1-yl)thiazolo[4,5-b]pyridin-6-yl)picolinamide]
95 | 97 | O=C(Nc1cc2sc(N3CCOCC3)nc2nc1N1CCCCC1)c1cccc(N2CCO[C@@H](CO)C2)n1 [Example 33, (R)-6-(2-(hydroxymethyl)morpholino)-N-(2-morpholino-5-(piperidin-1-yl)thiazolo[4,5-b]pyridin-6-yl)picolinamide]
90 | 97 | O=C(Nc1cc2sc(N3CCOCC3)nc2nc1N1CCCCC1)c1ccnc(N2CCC(O)C2)n1 (stereo not shown) [Example 53, 2-(3-hydroxypyrrolidin-1-yl)-N-(2-morpholino-5-(piperidin-1-yl)thiazolo[4,5-b]pyridin-6-yl)pyrimidine-4-carboxamide]
96 | 100 | COC(=O)C1CN(c2cccc(C(=O)Nc3cc4sc(N5CCOCC5)nc4nc3N3CCCCC3)n2)C(=O)N1 (stereo not shown) [Example 48, methyl 1-(6-((2-morpholino-5-(piperidin-1-yl)thiazolo[4,5-b]pyridin-6-yl)carbamoyl)pyridin-2-yl)-2-oxoimidazolidine-4-carboxylate]

The next lines start with the compound.

SMILES | inhibition at 0.1 µM [%] | inhibition at 1 µM [%]
O=C(Nc1cc2sc(N3CCOCC3)nc2nc1C(F)(F)F)c1cccc(N2CCC(O)C2)n1 (stereo not shown) [Example 44, 6-(3-hydroxypyrrolidin-1-yl)-N-(2-morpholino-5-(trifluoromethyl)thiazolo[4,5-b]pyridin-6-yl)picolinamide] | 90 | 96
Cc1cc(-c2nc(C(=O)Nc3cc4sc(N5CCOCC5)nc4nc3OC3CCC(N4CCOCC4)CC3)co2)ccn1 (stereo not shown) [Example 6, 2-(2-methylpyridin-4-yl)-N-(2-morpholino-5-(((1r,4r)-4-morpholinocyclohexyl)oxy)thiazolo[4,5-b]pyridin-6-yl)oxazole-4-carboxamide hydrochloride] | 100 | 100
Cc1cc(-c2nc(C(=O)Nc3cc4sc(N5CCN(C(=O)CO)CC5)nc4nc3N3CCCCC3)co2)ccn1 [Example 10, N-(2-(4-(2-hydroxyacetyl)piperazin-1-yl)-5-(piperidin-1-yl)thiazolo[4,5-b]pyridin-6-yl)-2-(2-methylpyridin-4-yl)oxazole-4-carboxamide hydrochloride] | 100 | 100
Cn1cc(-c2nc(C(=O)Nc3cc4sc(N5CCOCC5)nc4nc3N3CCCCC3)co2)ccc1=O [Example 3, 2-(1-methyl-6-oxo-1,6-dihydropyridin-3-yl)-N-(2-morpholino-5-(piperidin-1-yl)thiazolo[4,5-b]pyridin-6-yl)oxazole-4-carboxamide] | 97 | 98
Cc1cc(-c2nc(C(=O)Nc3cc4oc(N5CCOCC5)nc4nc3N3CCCC3=O)co2)ccn1 [Example 89, 2-(2-methylpyridin-4-yl)-N-(2-morpholino-5-(2-oxopyrrolidin-1-yl)oxazolo[4,5-b]pyridin-6-yl)oxazole-4-carboxamide hydrochloride] | 26 | 73
NCCNc1ccn2ncc(C(=O)Nc3cc4sc(N5CCOCC5)nc4nc3C3CC3)c2n1 [Example 22, 5-((2-aminoethyl)amino)-N-(5-cyclopropyl-2-morpholinothiazolo[4,5-b]pyridin-6-yl)pyrazolo[1,5-a]pyrimidine-3-carboxamide] | 97 | 98
Cc1cc(-c2nc(C(=O)Nc3cc4oc(N5CCOCC5)nc4nc3OC3CCC(N4CCOCC4)CC3)co2)ccn1 (stereo not shown) [Example 16, 2-(2-methylpyridin-4-yl)-N-(2-morpholino-5-(((1r,4r)-4-morpholinocyclohexyl)oxy)oxazolo[4,5-b]pyridin-6-yl)oxazole-4-carboxamide hydrochloride] | 94 | 99
O=C(Nc1cc2sc(N3CCOCC3)nc2nc1N1CCC[C@@H](O)C1)c1cccc(N2CC[C@H](O)C2)n1 [Example 28, N-(5-((R)-3-hydroxypiperidin-1-yl)-2-morpholinothiazolo[4,5-b]pyridin-6-yl)-6-((S)-3-hydroxypyrrolidin-1-yl)picolinamide] | 90 | 93
Cc1cc(-c2nc(C(=O)Nc3cc4sc(N5CCOCC5)nc4nc3N3CCC(O)(CO)C3)co2)ccn1 (stereo not shown) [Example 9, N-(5-(3-hydroxy-3-(hydroxymethyl)pyrrolidin-1-yl)-2-morpholinothiazolo[4,5-b]pyridin-6-yl)-2-(2-methylpyridin-4-yl)oxazole-4-carboxamide hydrochloride] | 101 | 99
O=C(Nc1cc2sc(N3CCOCC3)nc2nc1N1CC[C@@H](O)C1)c1cnn2cccnc12 [Example 103, (R)-N-(5-(3-hydroxypyrrolidin-1-yl)-2-morpholinothiazolo[4,5-b]pyridin-6-yl)pyrazolo[1,5-a]pyrimidine-3-carboxamide hydrochloride] | 92 | 97
O=C(Nc1cc2sc(N3CCOCC3)nc2nc1N1CCC(O)(CO)CC1)c1cccc(N2CC[C@H](O)C2)n1 [Example 8, (S)-N-(5-(4-hydroxy-4-(hydroxymethyl)piperidin-1-yl)-2-morpholinothiazolo[4,5-b]pyridin-6-yl)-6-(3-hydroxypyrrolidin-1-yl)picolinamide hydrochloride] | 97 | 98
NC1CCN(c2ccn3ncc(C(=O)Nc4cc5sc(N6CCOCC6)nc5nc4C4CC4)c3n2)C1 (stereo not shown) [Example 23, 5-(3-aminopyrrolidin-1-yl)-N-(5-cyclopropyl-2-morpholinothiazolo[4,5-b]pyridin-6-yl)pyrazolo[1,5-a]pyrimidine-3-carboxamide hydrochloride] | 86 | 97
Nc1cc(-c2nc(C(=O)Nc3cc4oc(N5CCOCC5)nc4nc3N3CC[C@@H](O)C3)co2)c(Cl)cn1 [Example 88, (R)-2-(2-amino-5-chloropyridin-4-yl)-N-(5-(3-hydroxypyrrolidin-1-yl)-2-morpholinooxazolo[4,5-b]pyridin-6-yl)oxazole-4-carboxamide] | 15 | –
O=C(Nc1cc2sc(N3CCOCC3)nc2nc1C1CC1)c1cnn2cccnc12 [Example 105, N-(5-cyclopropyl-2-morpholinothiazolo[4,5-b]pyridin-6-yl)pyrazolo[1,5-a]pyrimidine-3-carboxamide] | 96 | 97
